Assay results reported in patent publication US12281122B1, “PI3K inhibitors” (Cogent Biosciences, Inc., priority 2023, dated 2025).

Legend:
[1] = test system: SKBR3 (PI3Kα-Wild Type) cell line; experiment: HTRF phospho-AKT(S473) cell assay in SKBR3 cells; assay type: cell-based, human
Method in brief: (§1)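 HTRF read-out of phospho-AKT(S473) in lysates gave IC50 values after 2 h compound exposure at 37° C. Dose series was 12 points at 1:3, topping at 5 μM for T47D and 10 μM for SKBR3. Only SKBR3 received 70 ng/ml PDGF-BB during the last 15 minutes.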

[2] = test system: T47D (PI3Kα-H1047R) cell line; experiment: HTRF phospho-AKT(S473) cell assay in T47D cells; assay type: cell-based, human
Method in brief: as §1

[3] = Homo sapiens, SK-BR-3; HTRF phospho-AKT(S473), SKBR3 (PI3Kα-Wild Type) cells, 2 hours compound incubation, PDGF-BB stimulated
[4] = Homo sapiens; HTRF phospho-AKT(S473), T47D (PI3Kα-H1047R) cells, 2 hours compound incubation
[5] = Homo sapiens, SK-BR-3; SKBR3 (PI3Kα-Wild Type) cells, HTRF phospho-AKT(S473), 2 hours compound incubation, PDGF-BB stimulated
[6] = Homo sapiens; T47D (PI3Kα-H1047R) cells, HTRF phospho-AKT(S473), 2 hours compound incubation

Compound | IC50 [1, 3] | IC50 [2, 4] | IC50 [1, 5] | IC50 [2, 6]
Cc1cc([C@@H](C)Nc2ccc(Cl)nc2C(=O)NS(C)(=O)=O)c2nc(N3CCC(c4nc(C)co4)CC3)n(C)c(=O)c2c1 [Compound 545, (R)-6-chloro-3-((1-(3,6-dimethyl-2-(4-(4-methyloxazol-2-yl)piperidin-1-yl)-4-oxo-3,4-dihydroquinazolin-8-yl)ethyl)amino)-N-(methylsulfonyl) picolinamide] | ≥ 5000 nM | < 250 nM | – | –
Cc1cc([C@@H](C)Nc2ccc(Cl)nc2C(=O)NS(C)(=O)=O)c2nc(N3C[C@H]4C[C@@H]3C[C@H]4c3nn(C)cc3F)n(C)c(=O)c2c1 [Compound 766, 6-chloro-3-(((R)-1-(2-((1R,4S,5R)-5-(4-fluoro-1-methyl-1H-pyrazol-3-yl)-2-azabicyclo[2.2.1]heptan-2-yl)-3,6-dimethyl-4-oxo-3,4-dihydroquinazolin-8-yl)ethyl)amino)-N-(methylsulfonyl) picolinamide] | ≥ 5000 nM | 250 to 500 nM | – | –
CC(=O)N1CCN(c2ccc(-c3nc4c([C@@H](C)Nc5ccc(Cl)nc5C(=O)NS(C)(=O)=O)cc(C)cc4c(=O)n3C)cc2F)CC1(C)C [Compound 804, (R)-3-((1-(2-(4-(4-acetyl-3,3-dimethylpiperazin-1-yl)-3-fluorophenyl)-3,6-dimethyl-4-oxo-3,4-dihydroquinazolin-8-yl)ethyl)amino)-6-chloro-N-(methylsulfonyl) picolinamide] | ≥ 5000 nM | < 250 nM | – | –
Cc1cc([C@@H](C)Nc2ccc(Cl)nc2C(=O)NS(C)(=O)=O)c2nc(N3CCC(c4nn(C5CC5)cc4F)CC3)n(C)c(=O)c2c1 [Compound 505, (R)-6-chloro-3-((1-(2-(4-(1-cyclopropyl-4-fluoro-1H-pyrazol-3-yl)piperidin-1-yl)-3,6-dimethyl-4-oxo-3,4-dihydroquinazolin-8-yl)ethyl)amino)-N-(methylsulfonyl) picolinamide] | ≥ 5000 nM | 250 to 500 nM | – | –
C[C@@H](Nc1ccc(Cl)nc1C(=O)NS(C)(=O)=O)c1cc(Cl)cc2c(=O)n(C)c(N3CCC(c4nn(C)cc4F)CC3)nc12 [Compound 431, (R)-6-chloro-3-((1-(6-chloro-2-(4-(4-fluoro-1-methyl-1H-pyrazol-3-yl)piperidin-1-yl)-3-methyl-4-oxo-3,4-dihydroquinazolin-8-yl)ethyl)amino)-N-(methylsulfonyl) picolinamide] | – | – | 1000 to 5000 nM | 250 to 500 nM
Cc1cc([C@@H](C)Nc2ccc(Cl)nc2C(=O)NS(C)(=O)=O)c2nc(N3C[C@H]4C[C@@H]3CN4c3cnn(C)c3)n(C)c(=O)c2c1 [Compound 233, 6-chloro-3-(((R)-1-(3,6-dimethyl-2-((1R,4R)-5-(1-methyl-1H-pyrazol-4-yl)-2,5-diazabicyclo[2.2.1]heptan-2-yl)-4-oxo-3,4-dihydroquinazolin-8-yl)ethyl)amino)-N-(methylsulfonyl) picolinamide] | – | – | 1000 to 5000 nM | < 250 nM
Cc1cc([C@@H](C)Nc2ccc(Cl)nc2C(=O)NS(C)(=O)=O)c2nc(N3CCC(c4cc(C)n(C)n4)CC3)n(C)c(=O)c2c1 [Compound 287, (R)-6-chloro-3-((1-(2-(4-(1,5-dimethyl-1H-pyrazol-3-yl)piperidin-1-yl)-3,6-dimethyl-4-oxo-3,4-dihydroquinazolin-8-yl)ethyl)amino)-N-(methylsulfonyl) picolinamide] | – | – | 1000 to 5000 nM | < 250 nM
Cc1cc([C@@H](C)Nc2ccc(Cl)nc2C(=O)NS(C)(=O)=O)c2nc(N3C[C@@H]4[C@H](C3)[C@H]4c3cccnc3C)n(C)c(=O)c2c1 [Compound 385, 6-chloro-3-(((R)-1-(3,6-dimethyl-2-((1R,5S,6S)-6-(2-methylpyridin-3-yl)-3-azabicyclo[3.1.0]hexan-3-yl)-4-oxo-3,4-dihydroquinazolin-8-yl)ethyl)amino)-N-(methylsulfonyl) picolinamide] | – | – | 1000 to 5000 nM | < 250 nM
CC(=O)N1CCC2(CC1)CCN(c1nc3c([C@@H](C)Nc4ccc(Cl)nc4C(=O)NS(C)(=O)=O)cc(C)cc3c(=O)n1C)CC2 [Compound 280, (R)-3-((1-(2-(9-acetyl-3,9-diazaspiro[5.5]undecan-3-yl)-3,6-dimethyl-4-oxo-3,4-dihydroquinazolin-8-yl)ethyl)amino)-6-chloro-N-(methylsulfonyl) picolinamide] | – | – | 1000 to 5000 nM | < 250 nM
Cc1cc([C@@H](C)Nc2ccc(Cl)nc2C(=O)NS(C)(=O)=O)c2nc(N3[C@@H]4CC[C@H]3C[C@@H](c3ccn(C)n3)C4)n(C)c(=O)c2c1 [Compound 340, 6-chloro-3-(((R)-1-(3,6-dimethyl-2-((1R,3R,5S)-3-(1-methyl-1H-pyrazol-3-yl)-8-azabicyclo[3.2.1]octan-8-yl)-4-oxo-3,4-dihydroquinazolin-8-yl)ethyl)amino)-N-(methylsulfonyl) picolinamide] | – | – | ≥ 5000 nM | 250 to 500 nM
Cc1cc([C@@H](C)Nc2ccc(Cl)nc2C(=O)NS(C)(=O)=O)c2nc(-c3ccc4nn(C)cc4c3)n(C)c(=O)c2c1 [Compound 775, (R)-6-chloro-3-((1-(3,6-dimethyl-2-(2-methyl-2H-indazol-5-yl)-4-oxo-3,4-dihydroquinazolin-8-yl)ethyl)amino)-N-(methylsulfonyl) picolinamide] | 1000 to 5000 nM | < 250 nM | – | –
Cc1cc([C@@H](C)Nc2ccc(Cl)nc2C(=O)NS(C)(=O)=O)c2nc(-c3ccc(N4CCN(C)CC4)nc3)n(C)c(=O)c2c1 [Compound 251] | – | – | 1000 to 5000 nM | < 250 nM
Cc1cc([C@@H](C)Nc2ccc(Cl)nc2C(=O)NS(C)(=O)=O)c2nc(N3CCc4nn(CC5COC5)cc4C3)n(C)c(=O)c2c1 [Compound 289, (R)-6-chloro-3-((1-(3,6-dimethyl-2-(2-(oxetan-3-ylmethyl)-2,4,6,7-tetrahydro-5H-pyrazolo[4,3-c]pyridin-5-yl)-4-oxo-3,4-dihydroquinazolin-8-yl)ethyl)amino)-N-(methylsulfonyl) picolinamide] | – | – | ≥ 5000 nM | < 250 nM
COc1nn(C)cc1[C@H]1[C@@H]2CN(c3nc4c([C@@H](C)Nc5ccc(Cl)nc5C(=O)NS(C)(=O)=O)cc(C)cc4c(=O)n3C)C[C@@H]21 [Compound 440, 6-chloro-3-(((R)-1-(2-((1R,5S,6S)-6-(3-methoxy-1-methyl-1H-pyrazol-4-yl)-3-azabicyclo[3.1.0]hexan-3-yl)-3,6-dimethyl-4-oxo-3,4-dihydroquinazolin-8-yl)ethyl)amino)-N-(methylsulfonyl) picolinamide] | 1000 to 5000 nM | < 250 nM | – | –
Cc1cc([C@@H](C)Nc2ccc(Cl)nc2C(=O)NS(C)(=O)=O)c2nc(N3CCN(c4cnc(C)c(F)c4)CC3)n(C)c(=O)c2c1 [Compound 652, (R)-6-chloro-3-((1-(2-(4-(5-fluoro-6-methylpyridin-3-yl)piperazin-1-yl)-3,6-dimethyl-4-oxo-3,4-dihydroquinazolin-8-yl)ethyl)amino)-N-(methylsulfonyl) picolinamide] | 1000 to 5000 nM | 250 to 500 nM | – | –
Cc1cc([C@@H](C)Nc2ccc(Cl)nc2C(=O)NS(C)(=O)=O)c2nc(N3CCC[C@@H](c4ccn(C(F)F)n4)C3)n(C)c(=O)c2c1 (relative stereo) [Compound 768, 6-chloro-3-(((R)-1-(2-((R*)-3-(1-(difluoromethyl)-1H-pyrazol-3-yl)piperidin-1-yl)-3,6-dimethyl-4-oxo-3,4-dihydroquinazolin-8-yl)ethyl)amino)-N-(methylsulfonyl) picolinamide] | ≥ 5000 nM | 250 to 500 nM | – | –
[2H]C([2H])([2H])n1cc2cc(-c3nc4c([C@@H](C)Nc5ccc(Cl)nc5C(=O)NS(C)(=O)=O)cc(C)cc4c(=O)n3C)ccc2n1 [Compound 817, (R)-6-chloro-3-((1-(3,6-dimethyl-2-(2-(methyl-d3)-2H-indazol-5-yl)-4-oxo-3,4-dihydroquinazolin-8-yl)ethyl)amino)-N-(methylsulfonyl) picolinamide] | 1000 to 5000 nM | < 250 nM | – | –
Cc1cc([C@@H](C)Nc2ccc(Cl)nc2C(=O)NS(=O)(=O)C2COC2)c2nc(N3Cc4ccc(F)cc4C3)n(C)c(=O)c2c1 [Compound 173, (R)-6-chloro-3-((1-(2-(5-fluoroisoindolin-2-yl)-3,6-dimethyl-4-oxo-3,4-dihydroquinazolin-8-yl)ethyl)amino)-N-(oxetan-3-ylsulfonyl)picolinamide] | – | – | 1000 to 5000 nM | < 250 nM
Cc1cc([C@@H](C)Nc2ccc(Cl)nc2C(=O)NS(C)(=O)=O)c2nc(N3Cc4cn(CC(F)F)nc4C3)n(C)c(=O)c2c1 [Compound 230, (R)-6-chloro-3-((1-(2-(2-(2,2-difluoroethyl)-2,6-dihydropyrrolo[3,4-c]pyrazol-5(4H)-yl)-3,6-dimethyl-4-oxo-3,4-dihydroquinazolin-8-yl)ethyl)amino)-N-(methylsulfonyl) picolinamide] | – | – | 1000 to 5000 nM | < 250 nM
Cc1cc([C@@H](C)Nc2ccc(Cl)nc2C(=O)NS(C)(=O)=O)c2nc(N3C[C@@H]4CC4(c4cnc(C)nc4)C3)n(C)c(=O)c2c1 (relative stereo) [Compound 752, 6-chloro-3-(((R)-1-(3,6-dimethyl-2-((1R*,5R*)-1-(2-methylpyrimidin-5-yl)-3-azabicyclo[3.1.0]hexan-3-yl)-4-oxo-3,4-dihydroquinazolin-8-yl)ethyl)amino)-N-(methylsulfonyl) picolinamide] | ≥ 5000 nM | 500 to 1000 nM | – | –
